The numbers were not newly measured in patent US20060280700A1, “Oral hygiene system to fight the effects of aging on the mouth, gums, and teeth” (priority 2005, published 2006), which cites them from elsewhere.

For data set [1], the system named is oral squamous carcinoma cells. Conditions: for inhibition in growth of oral squamous carcinoma cells: in culture.
A further data set deals with Streptococcus mutants. Conditions: rodent model inoculated with Streptococcus mutants.

Regarding `O=C(O[C@@H]1Cc2c(O)cc(O)cc2O[C@H]1c1ccc(O)c(O)c1)c1cc(O)c(O)c(O)c1` [(−)-catechin gallate], the “inhibition of the activity of Pophyromonas proteinases” value with Pophyromonas proteinases was “significantly inhibited”.

Take (−)-epicatechin-3-gallate [ECG]: in data set [1], the “inhibition of DNA synthesis” value was “dose-dependent inhibition” and the “inhibition in growth of oral squamous carcinoma cells” value (“inhibition in growth” for short) is “significant dose dependent inhibition”. Further, in the data set with Pophyromonas proteinases, the “inhibition of the activity of Pophyromonas proteinases” value was “significantly inhibited”.

Consider `O=C(O[C@@H]1Cc2c(O)cc(O)cc2O[C@@H]1c1cc(O)c(O)c(O)c1)c1cc(O)c(O)c(O)c1` [EGCG, (−)-epigallocatechin-3-gallate], for which, in data set [1], the “inhibition of DNA synthesis” value is “dose-dependent inhibition” and the “inhibition in growth” value was “significant dose dependent inhibition”. Further, the “inhibition of the activity of Pophyromonas proteinases” value in the data set with Pophyromonas proteinases was “significantly inhibited”.

As for `Oc1cc(O)c2c(c1)O[C@H](c1cc(O)c(O)c(O)c1)[C@H](O)C2` [EGC, (−) epigauocatechin], in data set [1], the “inhibition of DNA synthesis” value is recorded as “dose-dependent inhibition” and the “inhibition in growth” value was “significant dose dependent inhibition”.

Turning to (−)-gallocatechin gallate, the “inhibition of the activity of Pophyromonas proteinases” value in the data set on Pophyromonas proteinases was “significantly inhibited”.

Regarding `OC[C@@H](O)[C@H](O)[C@@H](O)CO` [Xylitol], the cariogenic action result in the data set with Streptococcus mutants is “little or no cariogenic action”.
